# Measured values as given in patent US8293731B2, “HIV integrase inhibitors” (Merck Sharp + Dohme Corp., priority 2005, dated 2012).
# System: HIV
# Test: Assay for inhibition of HIV replication (spread assay): acute HIV infection of T-lymphoid cells
# Assay type: cell-based
# Conditions: Human immunodeficiency virus 1, 'less than about'
# Procedure: Assays for the inhibition of acute HIV infection of T-lymphoid cells were conducted in accordance with Vacca, J. P. et al., Proc. Natl. Acad. Set USA 1994, 91: 4096. […] For example, the compounds of Examples 1 to 64 were tested in this assay and found to have IC95 values of less than about 10 micromolar.
row,SMILES,IC95
1,"O=C1c2c(c3n(c(=O)c2O)CCCCN(CCN2CCCCC2)C3=O)CCN1Cc1ccc(F)c(Cl)c1 [Example 18, 11-(3-Chloro-4-fluorobenzyl)-9-hydroxy-2-(2-piperidinyl-1-ylethyl)-3,4,5,6,12,13-hexahydro-2H[1,4]diazocino[2,1-a]-2,6-naphthyridine-1,8,10(11H)-trione]",< 10 µM
2,"NCCN1CCCCn2c(c3c(c(O)c2=O)C(=O)N(Cc2ccc(F)c(Cl)c2)CC3)C1=O [Example 19, 11-(3-Chloro-4-fluorobenzyl)-9-hydroxy-2-(2-aminoethyl)-3,4,5,6,12,13-hexahydro-2H[1,4]diazocino[2,1-a]-2,6-naphthyridine-1,8,10(11H)-trione]",< 10 µM
3,"CC(=O)NCCN1CCCCn2c(c3c(c(O)c2=O)C(=O)N(Cc2ccc(F)c(Cl)c2)CC3)C1=O [Example 20, 11-(3-Chloro-4-fluorobenzyl)-9-hydroxy-2-[2-(acetylamino)ethyl]-3,4,5,6,12,13-hexahydro-2H[1,4]diazocino[2,1-a]-2,6-naphthyridine-1,8,10(11H)-trione]",< 10 µM
4,"CS(=O)(=O)NCCN1CCCCn2c(c3c(c(O)c2=O)C(=O)N(Cc2ccc(F)c(Cl)c2)CC3)C1=O [Example 21, 11-(3-Chloro-4-fluorobenzyl)-9-hydroxy-2-[2-(methamesulfonylamino)ethyl]-3,4,5,6,12,13-hexahydro-2H[1,4]diazocino[2,1-a]-2,6-naphthyridine-1,8,10(11H)-trione]",< 10 µM
5,"COCCN1CCCCn2c(c3c(c(O)c2=O)C(=O)N(Cc2ccc(F)c(Cl)c2)CC3)C1=O [Example 22, 11-(3-Chloro-4-fluorobenzyl)-9-hydroxy-2-[2-(methoxy)ethyl]-3,4,5,6,12,13-hexahydro-2H[1,4]diazocino[2,1-a]-2,6-naphthyridine-1,8,10(11H)-trione]",< 10 µM
6,"CN1CC(=O)CCn2c(c3c(c(O)c2=O)C(=O)N(Cc2ccc(F)c(Cl)c2)CC3)C1=O [Example 25, 11-(3-Chloro-4-fluorobenzyl)-9-hydroxy-2-methyl-5,6,12,13-tetrahydro-2H[1,4]diazocino[2,1-a]-2,6-naphthyridine-1,4,8,10(3H, 11H)-tetrone]",< 10 µM
7,"CN1CC(N2CCCC2)CCn2c(c3c(c(O)c2=O)C(=O)N(Cc2ccc(F)c(Cl)c2)CC3)C1=O (stereo not drawn) [Example 26, 11-(3-Chloro-4-fluorobenzyl)-9-hydroxy-2-methyl-4-pyrrolidin-1-yl-3,4,5,6,12,13-hexahydro-2H[1,4]diazocmo[2,1-a]-2,6-naphthyridine-1,8,10(11H)-trione]",< 10 µM
8,"CN1CC(N2CCOCC2)CCn2c(c3c(c(O)c2=O)C(=O)N(Cc2ccc(F)c(Cl)c2)CC3)C1=O (stereo not drawn) [Example 27, 11-(3-Chloro-4-fluorobenzyl)-9-hydroxy-2-methyl-4-morpholin-4-yl-3,4,5,6,12,13-hexahydro-2H[1,4]diazocino[2,1-a]-2,6-naphthyridine-1,8,10(11H)-trione]",< 10 µM
9,"CC1CCCN(C)C(=O)c2c3c(c(O)c(=O)n21)C(=O)N(Cc1ccc(F)c(Cl)c1)CC3 (stereo not drawn) [Example 28, 11-(3-Chloro-4-fluorobenzyl)-9-hydroxy-2,6-dimethyl-3,4,5,6,12,13-hexahydro-2H[1,4]diazocino[2,1-a]2,6-naphthyridine-1,8,10(11H)-trione]",< 10 µM
10,"CC1CCCN(CCO)C(=O)c2c3c(c(O)c(=O)n21)C(=O)N(Cc1ccc(F)c(Cl)c1)CC3 (stereo not drawn) [Example 30, 11-(3-Chloro-4-fluorobenzyl)-9-hydroxy-2-(2-hydroxyethyl)-6-methyl-3,4,5,6,12,13-hexahydro-2H[1,4]diazocino[2,1-a]-2,6-naphthyridine-1,8,10(11H)-trione]",< 10 µM
11,"CC1CCCN(CCN2CCOCC2)C(=O)c2c3c(c(O)c(=O)n21)C(=O)N(Cc1ccc(F)c(Cl)c1)CC3 (stereo not drawn) [Example 32, 11-(3-Chloro-4-fluorobenzyl)-9-hydroxy-2-(2-morpholin-4-ylethyl)-6-methyl-3,4,5,6,12,13-hexahydro-2H[1,4]diazocino[2,1-a]-2,6-naphthyridine-1,8,10(11H)-trione]",< 10 µM
12,"CC1CCCN(CCN2CCCCC2)C(=O)c2c3c(c(O)c(=O)n21)C(=O)N(Cc1ccc(F)c(Cl)c1)CC3 (stereo not drawn) [Example 33, 11-(3-Chloro-4-fluorobenzyl)-9-hydroxy-2-(2-piperidinyl-1-ylethyl)-6-methyl-3,4,5,6,12,13-hexahydro-2H[1,4]diazocino[2,1-a]-2,6-naphthyridine-1,8,10(11H)-trione]",< 10 µM
13,"CC1CCCN(CCN2CCCC2)C(=O)c2c3c(c(O)c(=O)n21)C(=O)N(Cc1ccc(F)c(Cl)c1)CC3 (stereo not drawn) [Example 34, 11-(3-Chloro-4-fluorobenzyl)-9-hydroxy-2-(2-pyrrolidinyl-1-ylethyl)-6-methyl-3,4,5,6,12,13-hexahydro-2H[1,4]diazocino[2,1-a]-2,6-naphthyridine-1,8,10(11H)-trione]",< 10 µM
14,"CC1CCCN(CCn2cccn2)C(=O)c2c3c(c(O)c(=O)n21)C(=O)N(Cc1ccc(F)c(Cl)c1)CC3 (stereo not drawn) [Example 35, 11-(3-Chloro-4-fluorobenzyl)-9-hydroxy-2-[2-(1H-pyrazol-1-yl)ethyl]-6-methyl-3,4,5,6,12,13-hexahydro-2H[1,4]diazocino[2,1-a]-2,6-naphthyridine-1,8,10(11H)-trione]",< 10 µM
15,"CC1CCCN(CCn2ccnc2)C(=O)c2c3c(c(O)c(=O)n21)C(=O)N(Cc1ccc(F)c(Cl)c1)CC3 (stereo not drawn) [Example 36, 11-(3-Chloro-4-fluorobenzyl)-9-hydroxy-2-[2-(1H-imidazol-1-yl)ethyl]-6-methyl-3,4,5,6,12,13-hexahydro-2H[1,4]diazocino[2,1-a]-2,6-naphthyridine-1,8,10(11H)-trione]",< 10 µM
16,"CN1CCC(O)Cn2c(c3c(c(O)c2=O)C(=O)N(Cc2ccc(F)c(Cl)c2)CC3)C1=O (stereo not drawn) [Example 37, 11(3-Chloro-4-fluorobenzyl)-5,9-dihydroxy-2-methyl-3,4,5,6,12,13-hexahydro-2H[1,4]diazocino[2,1-a]-2,6-naphthyridine-1,8,10(11H)-trione]",< 10 µM
17,"C[C@H]1C[C@@H](O)CN(C)C(=O)c2c3c(c(O)c(=O)n21)C(=O)N(Cc1ccc(F)c(Cl)c1)CC3 [Example 43, (4R,6S)-11-(3-Ch1oro-4-fluorobenzyl)-4,9-dihydroxy-2,6-dimethyl-3,4,5,6,12,13-hexahydro-2H[1,4]diazocino[2,1-a]-2,6-naphthyridine-1,8,10(11H)-trione]",< 10 µM
18,"C[C@H]1C[C@H](O)CN(C)C(=O)c2c3c(c(O)c(=O)n21)C(=O)N(Cc1ccc(F)c(Cl)c1)CC3 [Example 44, (4S,6S)-11-(3-Chloro-4-fluorobenzyl)-4,9-dihydroxy-2,6-dimethyl-3,4,5,6,12,13-hexahydro-2H[1,4]diazocino[2,1-a]-2,6-naphthyridine-1,8,10(11H)-trione]",< 10 µM
19,"CN1CC(C)(C)CCn2c(c3c(c(O)c2=O)C(=O)N(Cc2ccc(F)c(Cl)c2)CC3)C1=O [Example 45, 11-(3-Chloro-4-fluorobenzyl)-9-hydroxy-2,4,4-trimethyl-3,4,5,6,12,13-hexahydro-2H[1,4]diazocino[2,1-a]-2,6-naphthyridine-1,8,10(11H)trione]",< 10 µM
20,"CC1CCn2c(c3c(c(O)c2=O)C(=O)N(Cc2ccc(F)c(Cl)c2)CC3)C(=O)N(C)C1 (stereo not drawn) [Example 46, 11-(3-Chloro-4-fluorobenzyl)-9-hydroxy-2,4-dimethyl-3,4,5,6,12,13-hexahydro-2H[1,4]diazocino[2,1-a]-2,6-naphthyridine-1,8,10(11H)-trione]",< 10 µM
21,"CN1CCC[C@H](CO)n2c(c3c(c(O)c2=O)C(=O)N(Cc2ccc(F)c(Cl)c2)CC3)C1=O [Example 47, (6R)-11-(3-Chloro-4-fluorobenzyl)-9-hydroxy-6-(hydroxymethyl)-2-methyl-3,4,5,6,12,13-hexahydro-2H-[1,4]diazocino[2,1-a]-2,6-naphthyridine-1,8,10(11H)-trione]",< 10 µM
22,"CN1CCC[C@H](CO)n2c(c3c(c(O)c2=O)C(=O)N(Cc2ccc(F)cc2)CC3)C1=O [Example 48, (6R) 11-(4-Fluorobenzyl)-9-hydroxy-6-(hydroxymethyl)-2-methyl-3,4,5,6,12,13-hexahydro-2H-[1,4]diazocino[2,1-a]2,6-naphthyridine-1,8,10(11H)-trione]",< 10 µM
23,"CN1CCC[C@@H](CO)n2c(c3c(c(O)c2=O)C(=O)N(Cc2ccc(F)c(Cl)c2)CC3)C1=O [Example 49, (6S)-11-(3-Chloro-4-fluorobenzyl)-9-hydroxy-6-(hydroxymethyl)-2-methyl-3,4,5,6,12,13-hexahydro-2H-[1,4]diazocino[2,1-a]-2,6-naphthyridine-1,8,10(11H)-trione]",< 10 µM
24,"C=C1CCCN(C)C(=O)c2c3c(c(O)c(=O)n21)C(=O)N(Cc1ccc(F)c(Cl)c1)CC3 [Example 50, 11-(3-chloro-4-fluorobenzyl)-9-hydroxy-2-methyl-6-methylene-3,4,5,6,12,13-hexahydro-2H-[1,4]diazocino[2,1-a]2,6-naphthyridine-1,8,10(11H)trione]",< 10 µM
25,"CN(C)C(=O)CN1C(=O)C(C)(C)n2c1c1c(c(O)c2=O)C(=O)N(Cc2ccc(F)c(Cl)c2)CC1 [Example 51, 2-[8-(3-Chloro-4-fluorobenzyl)-6-hydroxy-3,3-dimethyl-2,5,7-trioxo-2,3,7,8,9,10-hexahydroimidazo[2,1-a]-2,6-naphthyridin-1(5H)-yl]-N,N-dimethylacetamide]",< 10 µM
26,"CNC(=O)CN1C(=O)C(C)(C)n2c1c1c(c(O)c2=O)C(=O)N(Cc2ccc(F)c(Cl)c2)CC1 [Example 52, 2-[8-(3-Chloro-4-fluorobenzyl)-6-hydroxy-3,3-dimethyl-2,5,7-trioxo-2,3,7,8,9,10-hexahydroimidazo[2,1-a]-2,6-naphthyridin-1(5H)-yl]-N-methylacetamide]",< 10 µM
27,"CC1(C)C(=O)N(CC(N)=O)c2c3c(c(O)c(=O)n21)C(=O)N(Cc1ccc(F)c(Cl)c1)CC3 [Example 53, 2-[8-(3-Chloro-4-fluorobenzyl)-6-hydroxy-3,3-dimethyl-2,5,7-trioxo-2,3,7,8,9,10-hexahydroimidazo[2,1-a]-2,6-naphthyridin-1(5H)-yl]acetamide]",< 10 µM
